Measured values published in PubChem BioAssay (NCI).
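Growth conditions: 96-well plates. Treatment: test compound, 48 hours, 5 concentrations. Analysis: linear interpolation between bracketing concentrations; unreached endpoints set to highest concentration. At the TGI there is no net growth.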

Tests used:
Assay in all cases: DTP human tumour cell line panel, 48 h
M14 melanoma = test system: M14 melanoma
CCRF-CEM leukemia = test system: CCRF-CEM leukemia
MCF7 breast = test system: MCF7 breast
RPMI-8226 leukemia = test system: RPMI-8226 leukemia
HL-60(TB) leukemia = test system: HL-60(TB) leukemia
PC-3 prostate = test system: PC-3 prostate
UO-31 renal = test system: UO-31 renal
OVCAR-4 ovarian = test system: OVCAR-4 ovarian
EKVX NSCLC = test system: EKVX NSCLC
K-562 leukemia = test system: K-562 leukemia
HOP-92 NSCLC = test system: HOP-92 NSCLC
OVCAR-3 ovarian = test system: OVCAR-3 ovarian
NCI-H226 lung = test system: NCI-H226 lung
IGROV1 ovarian = test system: IGROV1 ovarian
HCT-116 colon = test system: HCT-116 colon
MDA-MB-435 = test system: MDA-MB-435

| SMILES | TGI (M14 melanoma) | TGI (CCRF-CEM leukemia) | TGI (MCF7 breast) | TGI (RPMI-8226 leukemia) | TGI (HL-60(TB) leukemia) | TGI (PC-3 prostate) | TGI (UO-31 renal) | TGI (OVCAR-4 ovarian) | TGI (EKVX NSCLC) | TGI (K-562 leukemia) | TGI (HOP-92 NSCLC) | TGI (OVCAR-3 ovarian) | TGI (NCI-H226 lung) | TGI (IGROV1 ovarian) | TGI (HCT-116 colon) | TGI (MDA-MB-435) |
| --- | --- | --- | --- | --- | --- | --- | --- | --- | --- | --- | --- | --- | --- | --- | --- | --- |
| CC(=O)O[C@H]1C(=O)[C@@]2(C)[C@H]([C@H](OC(=O)c3ccccc3)[C@]3(O)C[C@H](OC(=O)[C@H](O)[C@@H](NC(=O)c4ccc(N)cc4)c4ccccc4)C(C)=C1C3(C)C)[C@]1(OC(C)=O)CO[C@@H]1C[C@@H]2O | > 50 µM | > 23.7 µM | > 50 µM | < 0.005 µM | 0.318 µM | > 50 µM | > 50 µM | > 50 µM | > 50 µM | 0.26 µM | > 50 µM | 0.0224 µM | 0.00862 µM | > 50 µM | > 50 µM | – |
| OC1=C2c3ccccc3NC2Oc2cc(F)ccc21 (stereo not drawn) | 31.8 µM | 7.21 µM | > 100 µM | – | – | 41.4 µM | 28.2 µM | 50.6 µM | 22.4 µM | 48.5 µM | 54.1 µM | 27.9 µM | 89.5 µM | > 100 µM | 28.7 µM | 33.9 µM |
| [O-][n+]1nc(N2CCOCC2)nc2ccccc21 | > 100 µM | > 100 µM | > 100 µM | > 100 µM | > 100 µM | > 100 µM | > 100 µM | – | > 100 µM | > 100 µM | – | – | > 100 µM | > 100 µM | > 100 µM | > 100 µM |
| CC1=CC[C@H](C[C@H](C#CCCCC2OCCO2)O[Si](C(C)C)(C(C)C)C(C)C)C(=O)CC1 | > 100 µM | > 100 µM | > 100 µM | > 100 µM | – | > 100 µM | > 100 µM | > 100 µM | > 100 µM | > 100 µM | > 100 µM | > 100 µM | > 100 µM | > 100 µM | > 100 µM | > 100 µM |
| CCSc1nnc(Sc2c3ccccc3nc3ccccc23)s1 | 32.1 µM | > 100 µM | 17.5 µM | > 28 µM | – | 46.7 µM | 23.7 µM | 34.7 µM | 16.7 µM | > 100 µM | > 44.8 µM | 29.4 µM | > 78.9 µM | > 55 µM | 23.5 µM | > 61.8 µM |
| Cc1cccc2nc(-c3ccccc3)cc(=O)n12 | > 100 µM | > 100 µM | > 100 µM | > 100 µM | > 100 µM | > 100 µM | – | > 100 µM | > 100 µM | > 100 µM | > 100 µM | > 100 µM | > 100 µM | > 100 µM | > 100 µM | – |
| CCCCCCCCCCCCCCCCP(=O)(O)OCC(N)C(=O)O (stereo not drawn) | > 100 µM | > 100 µM | – | 62.7 µM | 39.2 µM | 41.5 µM | 31.7 µM | > 100 µM | > 100 µM | > 100 µM | 48.2 µM | 79.3 µM | > 100 µM | 28.9 µM | 48.9 µM | > 100 µM |
| CCCCNC(=S)Nc1nc(C(=O)NNC(=S)NCC)cs1 | > 100 µM | > 100 µM | > 100 µM | > 100 µM | – | > 100 µM | > 100 µM | > 100 µM | > 100 µM | – | – | > 100 µM | – | > 100 µM | > 100 µM | > 100 µM |
| C1=C(CC2=C[P+](c3ccccc3)(c3ccccc3)C=C(c3ccccc3)O2)OC(c2ccccc2)=C[P+]1(c1ccccc1)c1ccccc1 | 1.8 µM | 1.54 µM | – | 0.558 µM | 0.446 µM | 1.4 µM | 2.94 µM | – | 1.68 µM | – | – | 1.16 µM | – | 0.43 µM | 1.25 µM | 1.11 µM |
| CC[C@]12C=CCN3CC[C@@]4(c5cc(Br)c(OC)c([N+](=O)[O-])c5N(C)[C@H]4[C@@](O)(C(=O)OC)[C@@H]1OC(C)=O)[C@@H]32 | > 100 µM | > 100 µM | > 100 µM | > 100 µM | > 100 µM | > 100 µM | > 100 µM | > 100 µM | 91.4 µM | > 100 µM | – | > 100 µM | > 100 µM | 61.4 µM | > 100 µM | > 100 µM |
| CC(=O)NC1C(OCc2ccccc2)OC(CO)C(O)C1OC(C)C(=O)NC(C(=O)NC(CCC(=O)NCCCC(=O)Nc1ccc2c(c1)CN1C(=O)c3ccccc3C1=N2)C(N)=O)C(C)C (stereo not drawn) | > 100 µM | > 100 µM | > 100 µM | > 100 µM | > 100 µM | > 100 µM | > 100 µM | > 100 µM | > 100 µM | > 100 µM | > 100 µM | > 100 µM | – | > 100 µM | > 100 µM | > 100 µM |
| Cc1cc(S(=O)(=O)Nc2nc(N)nc(N3N=CCC3C)n2)c(SCC(=O)O)cc1Cl (stereo not drawn) | > 10 µM | > 10 µM | > 10 µM | > 10 µM | > 10 µM | > 10 µM | – | > 10 µM | > 10 µM | > 10 µM | – | > 10 µM | > 10 µM | > 10 µM | > 10 µM | > 10 µM |
| CC(=O)OC1=NN=C2COC(c3ccccc3OC(C)=O)=NN2C1 | > 50 µM | > 50 µM | > 50 µM | > 50 µM | > 50 µM | > 50 µM | > 50 µM | > 50 µM | > 50 µM | > 50 µM | > 50 µM | > 50 µM | – | > 50 µM | > 50 µM | > 50 µM |
| O=C(CC(O)(C(F)(F)F)C(F)(F)F)C(c1ccccc1)C(O)(C(F)(F)F)C(F)(F)F (stereo not drawn) | > 100 µM | > 100 µM | > 100 µM | > 100 µM | – | > 100 µM | > 100 µM | > 100 µM | > 100 µM | > 100 µM | 13 µM | 83.4 µM | > 100 µM | > 100 µM | > 100 µM | > 100 µM |
| C1C2CC3CC1CC(c1nn4c(C56CC7CC(CC(C7)C5)C6)nnc4s1)(C2)C3 | > 100 µM | > 100 µM | – | > 100 µM | > 100 µM | > 100 µM | > 100 µM | > 100 µM | > 100 µM | > 100 µM | > 100 µM | > 100 µM | > 100 µM | > 100 µM | > 100 µM | > 100 µM |
